# Measured values as given in PubChem BioAssay AID624258 (Broad Institute, 2012).
# The source made the active and inactive calls. No rule for the calls is given here.
# Tested on: not listed separately
# Experiment: SKN7 mediated toxicity in Saccharomyces cerevisiae, growth rescue counterscreen, dose confirmation (AID 624258);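 also: growth read after three days of incubation at 30 °C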;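 as to growth rescue activity: 0% = median of neutral control wells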
# Conditions: S. cerevisiae SKN7-toxicity growth rescue, plate reader; at 6.8 µM (top of the series)
row,SMILES,growth rescue activity
1,O=C(Nc1ccc(Cl)cc1)NC1CCCCC1Cc1ccco1 (stereo not given),76.3% (inactive)

# Same assay, conditions: S. cerevisiae SKN7-toxicity growth rescue, plate reader; at 19.5 µM (top of the series)
row,SMILES,growth rescue activity
1,COC(=O)C1=C(C)NC(C)=C(C(=O)OCC(C)C)C1c1ccccc1[N+](=O)[O-] (stereo not given),-47.9% (inactive)
2,COc1ccc(C(=O)On2c(-c3ccc(Br)cc3)nc3ccccc3c2=O)cc1,-5.26% (inactive)
3,Cc1cc(N2CCN(c3ccccc3)CC2)nc(-c2ccccc2O)n1,-42.6% (inactive)
4,Cc1cccc(N=Cc2[nH]c3ccc(Br)c(Cl)c3c2O)c1,-14.7% (inactive)
5,O=C(O)c1ccccc1NC(c1ccccc1)c1ccc2cccnc2c1O (stereo not given),-59.1% (inactive)
6,COc1ccc(OC)c(-c2c3cc(O)c(=O)cc-3oc3cc(O)c(O)cc23)c1,26.2% (inactive)
7,COC(=O)c1cccc2c1NC(=O)C2=O,-14.3% (inactive)
8,C=C(C)COc1ccc(-c2[nH]ncc2-c2ccc(Br)cc2)c(O)c1,-77.7% (inactive)
9,Cc1ccc(NS(=O)(=O)c2ccc(N3CCN(c4ccc(O)cc4)CC3)c([N+](=O)[O-])c2)c(C)c1,-52.6% (inactive)
10,CCC(C)Sc1cccc(-c2nc3ccccn3c2NCc2ccccc2)c1 (stereo not given),-90.6% (inactive)
11,O=C(Nc1ccc(Cl)cc1C(=O)Nc1ccc(Br)cn1)c1ccco1,-90.7% (inactive)
12,Cc1ccc(Nc2cc(C)nn2-c2nc(C)cc(C)n2)cc1,-73.3% (inactive)

# Tested on: S. cerevisiae SKN7-toxicity growth rescue, plate reader
# Experiment: as above
# Conditions: not given
row,SMILES,AC40
1,CCCCCCCN1N=C(C)C(C(=O)c2ccccc2)C1=O (stereo not given),0.764 µM
2,Cc1ccc([C@@H]2CC=C(C(=O)O)[C@H](c3ccc(Br)cc3)N2S(=O)(=O)c2ccccc2C)cc1,5.39 µM
3,Cc1ccccc1CSCCNC(=O)COc1ccc(Cl)cc1,7.18 µM
4,Cc1ccc(-c2cc(-c3ccc(C)cc3)[n+](-c3ccccc3)c(-c3ccc(C)cc3)c2)cc1,4.13 µM
5,CC(C)(c1cc(Br)c(O)c(Br)c1)c1cc(Br)c(O)c(Br)c1,1.26 µM
6,CCCCOc1ccc2c(c1)C(=O)c1cc(O)ccc1-2,1.93 µM
7,COc1cccc(/C=N/Nc2ncc(C(F)(F)F)cc2Cl)c1O,1.11 µM
8,O=C(Oc1ccc(N(C(=O)c2ccncc2)S(=O)(=O)c2ccc(Cl)cc2)cc1)c1ccncc1,0.978 µM
9,Cc1ccc(S(=O)(=O)N/N=C\c2ccc([N+](=O)[O-])o2)cc1C,10.5 µM
10,Cc1ccc(C2(c3ccc(C)cc3)CC2C(=O)Nc2ccc([N+](=O)[O-])cc2O)cc1 (stereo not given),6.78 µM
11,Cc1ccc(Nc2c(-c3ccccc3O)nc3cnccn23)cc1,8.08 µM
12,Cc1ccc(Sc2ccc([N+](=O)[O-])cc2[N+](=O)[O-])nc1,10.1 µM
13,CSC1=NC(=O)/C(=C/c2ccc(SC)cc2)S1,2.61 µM
14,O=C1CC(O)(C(F)(F)F)Oc2c1ccc1ccccc21 (stereo not given),0.814 µM
15,CN(C)c1ccc(-n2cccc2/C=C/[N+](=O)[O-])cc1,1.16 µM
16,COc1ccccc1N(C)S(=O)(=O)c1ccc(Cl)c(C(=O)NNC(=O)c2ccccc2O)c1,1.95 µM
17,CC(C)CN=Cc1c(O)c([N+](=O)[O-])cc2oc3c(c12)CCCC3,1.25 µM
18,CCCCCCCCCCn1c2c(c(=N)c3c1CCC3)CCC2,> 6.8 µM (inactive)
19,O=[N+]([O-])c1ccc(-c2nc(-c3cccs3)c(-c3cccs3)[nH]2)cc1,4.72 µM
20,Cc1cccc(C(=O)NC(=S)NNC(=O)Cc2ccccc2)c1,1.22 µM
21,CCN=c1scc(C)n1/N=C/c1ccc(O)c(O)c1O,7.51 µM
22,O=C1Cc2ccccc2C(=O)N1CCc1ccccc1,10.5 µM
23,CCC(Oc1ccccc1)C(=O)Nc1ncc([N+](=O)[O-])s1 (stereo not given),0.668 µM

row,SMILES,AC40
1,Cc1ccccc1N1CCN(C2=NC(=O)/C(=C\c3cccs3)S2)CC1,4.83 µM
2,Cc1cc([N+](=O)[O-])cc(/C=N/n2c(C)nc3ccccc3c2=O)c1O,4.24 µM
3,COc1ccc2c(c1)c1nnc(SC)nc1n2C,2 µM
4,Cc1ccc(NC2=C(NC(=O)c3ccccc3)C(=O)c3ccccc3C2=O)cc1Cl,4.15 µM
5,Oc1ccc(-c2nc3ccccc3s2)c(O)c1,0.726 µM
6,CC(=O)C1CCC2C3CC=C4CC(SC(=N)N)CCC4(C)C3CCC12C (stereo not given),1.66 µM
7,O=c1[nH]cc(F)c(=O)[nH]1,9.32 µM
8,COc1ccc2c(c1)S/C(=C\C(=O)c1ccncc1)N2C,1.76 µM
9,Cc1cc(Cl)ccc1OCC(=O)NCCCCc1ccccc1,8.43 µM
10,Cc1cc2oc(=O)cc(-c3ccccc3)c2c(C)c1-c1ccc(CO)cc1,4.67 µM
11,Cc1ccnc(NC(c2ccsc2)c2ccc3ccc(C)nc3c2O)c1 (stereo not given),6.7 µM
12,Cc1ccc(S(=O)(=O)N2CCOC23CCN(C(=O)c2cc(Cl)ccc2Cl)CC3)cc1,7.25 µM
13,c1c[nH]c(CN2CCN(Cc3ncc[nH]3)CC2)n1,1.7 µM
14,O=C(NCC1CC1(Cl)Cl)Nc1ccc(Cl)c(Cl)c1 (stereo not given),> 6.8 µM (inactive)
15,O=C(CSc1nnc(-c2ccccc2O)n1Cc1ccccc1)NNC(=O)c1ccccc1O,6.84 µM
16,Cc1cccc(N2CCN(C(=O)C3CCCCC3)CC2)c1C,19.3 µM
17,O=[N+]([O-])c1cc(Cl)cc(/C=N/NC(=S)Nc2ccc(S(=O)(=O)N3CCOCC3)cc2)c1O,2.22 µM
18,Cc1nc2c(nc1C)C(=O)c1ccccc1C2=O,13 µM
19,CCS(=O)(=O)c1ccc(N=Nc2ccc(O)c3ncccc23)c(OC)c1,3.56 µM
20,O=C1C=C(c2ccccc2)C(=O)N1Nc1ccccc1,1.15 µM
21,CCOC(=O)c1c(-c2ccccc2)oc2ccc(O)cc12,10.4 µM
22,O=c1c2cc(Cl)ccc2oc2nc3n(c(=O)c12)CCCS3,19.1 µM
23,CC(C)(C)c1cc(CCC(=O)NNC(=S)NC(=O)c2ccccc2)cc(C(C)(C)C)c1O,6.31 µM

row,SMILES,AC40
1,COc1cc(OC)cc(N2C(=O)CC(N3CCC(C(=O)N4CCCCC4)CC3)C2=O)c1 (stereo not given),13.7 µM
2,Cc1nn(-c2nnc(NC3CCCCC3)nn2)c(C)c1Br,6.48 µM
3,COc1ccc2c(n1)Sc1nc3ccccc3nc1N2,0.649 µM
4,O=C(O/N=C(\c1ccccc1)c1ccncc1)c1ccccc1Cl,9.26 µM
5,Cn1nc(C(F)(F)F)c(C#N)c1N1CCN(c2ccccc2)CC1,17.6 µM
6,CC(C)(C)c1ccc(-n2nc(C#N)c(Cl)cc2=O)cc1,0.292 µM
7,Cc1nnc(N=c2ssnc2Cl)o1,0.832 µM
8,CCOC(=O)c1ccc(N2C(=O)CC(N(C)CCc3ccc(OC)c(OC)c3)C2=O)cc1 (stereo not given),4.82 µM
9,Cc1ccc2c(C)c3ccc4ccccc4c3c[n+]2c1,0.247 µM
10,O=c1c(O)cccc2cc(O)c(O)c(O)c12,2.27 µM
11,COc1cccc(CNC(=O)CSc2ccc(-c3ccccn3)nn2)c1,16.4 µM
12,COc1cccc(CNC(=O)COc2ccc(C(=O)c3ccccc3)cc2)c1,18 µM
13,COc1ccc(C(=O)c2c(C(F)(F)F)oc3c2C(=O)c2ccccc2C3=O)cc1OC,14.3 µM
14,CC1CC(C)CN(C(=O)c2cccc(S(=O)(=O)Nc3cc(C(F)(F)F)ccc3Cl)c2)C1 (stereo not given),16.8 µM
15,Cc1c2cnccc2c(C)c2c1oc1ccccc12,2.99 µM
16,Cc1cccc(NS(=O)(=O)c2ccc(-c3cnc(C4CC4)o3)cc2)c1C,12.6 µM
17,O=C(NCCN1CCN(c2cccc(Cl)c2)CC1)c1ccc(CSc2nc3ccncc3[nH]2)cc1,8.35 µM
18,Cc1cc(/C=N/n2cnnc2)c(C)n1-c1ccc(OCc2ccc(F)cc2)cc1,0.516 µM
19,COc1cccc(/C=N/Nc2ncnc(Cl)c2N)c1O,3.72 µM
20,Oc1ccc(Cl)cc1CNc1cccc2cccnc12,0.156 µM
21,COC(=O)c1cc(Sc2cccc(Cl)c2Cl)ccn1,14.7 µM
